ChEMBL document CHEMBL1201862, “PubChem BioAssay data set” (2004)
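Five compound concentrations were applied to cells in 96-well plates for 48 hours; endpoints were derived by simple linear interpolation of the resulting dose-response curve. GI50 is the concentration that inhibits growth by half.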 Calls of active or inactive are those of the source. No stated cut-off is given here; in the data, active = GI50 up to about 1.1 µM and inactive = higher.

Key:
Assay in all cases: DTP human tumour cell line panel, 48 h
HT-29 = system: HT-29
EKVX = system: EKVX
IGROV-1 = system: IGROV-1
786-0 = system: 786-0
SF-295 = system: SF-295
PC-3 = system: PC-3
T47D = system: T47D
NCI-H460 = system: NCI-H460
KM12 = system: KM12
SF-268 = system: SF-268
DU-145 = system: DU-145
U-251 = system: U-251
SW-620 = system: SW-620
MDA-N = system: MDA-N
LOX IMVI = system: LOX IMVI
NCI-H23 = system: NCI-H23
MDA-MB-435 = system: MDA-MB-435
SNB-75 = system: SNB-75
HCC 2998 = system: HCC 2998
SK-MEL-28 = system: SK-MEL-28

Measured: GI50

Oc1ccc(-c2nc3ccc(F)cc3s2)cc1
inactive: HT-29 15 µM | EKVX 10.8 µM | IGROV-1 16.9 µM | 786-0 18.5 µM | SF-295 19.1 µM | PC-3 21.4 µM | T47D 15.1 µM | NCI-H460 24.1 µM | KM12 15.7 µM | SF-268 23.2 µM | DU-145 15.2 µM | U-251 19.2 µM | SW-620 29.9 µM | MDA-N 23.5 µM | LOX IMVI 20.4 µM | NCI-H23 19.7 µM | MDA-MB-435 20.4 µM

Cc1ccc(S(=O)(=O)N2CCCSCCN(S(=O)(=O)c3ccc(C)cc3)CCCSCC2)cc1
inactive: HT-29 > 100 µM | EKVX > 100 µM | SNB-75 > 100 µM | IGROV-1 > 100 µM | HCC 2998 89.5 µM | SK-MEL-28 > 100 µM | 786-0 > 100 µM | SF-295 > 100 µM | T47D 17.5 µM | NCI-H460 > 100 µM | KM12 > 100 µM | SF-268 > 100 µM | DU-145 > 100 µM | U-251 > 100 µM | SW-620 > 100 µM | MDA-N > 100 µM | NCI-H23 > 100 µM | MDA-MB-435 > 100 µM

CC(C)=C1C(=O)c2c(Cl)sc(Cl)c2C1=O
inactive: HT-29 28.8 µM | EKVX 27.7 µM | SNB-75 18.4 µM | IGROV-1 21.9 µM | SK-MEL-28 21.7 µM | 786-0 22.9 µM | SF-295 39.5 µM | T47D 31 µM | NCI-H460 > 100 µM | KM12 16.5 µM | SF-268 30.2 µM | DU-145 22.4 µM | U-251 22.2 µM | SW-620 28.7 µM | MDA-N 22.6 µM | LOX IMVI 18.2 µM | NCI-H23 17.8 µM | MDA-MB-435 18.6 µM

NC1CC=C(COC(=O)C(O)(c2ccccc2)C2CC2)CC1 (stereo unspecified)
inactive: HT-29 > 100 µM | EKVX > 100 µM | SNB-75 > 100 µM | IGROV-1 > 100 µM | HCC 2998 > 100 µM | SK-MEL-28 > 100 µM | 786-0 > 100 µM | SF-295 > 100 µM | PC-3 > 100 µM | T47D > 100 µM | KM12 > 100 µM | SF-268 > 100 µM | DU-145 > 100 µM | U-251 > 100 µM | SW-620 > 100 µM | MDA-N > 100 µM | LOX IMVI > 100 µM | NCI-H23 > 100 µM

COc1cc(NCC2COc3c(ccc(OC)c3OC)C2=O)c([N+](=O)[O-])cc1OC (stereo unspecified)
inactive: HT-29 > 100 µM | EKVX 95.1 µM | SNB-75 60.1 µM | IGROV-1 > 100 µM | SK-MEL-28 > 100 µM | 786-0 15.6 µM | SF-295 66.1 µM | PC-3 94 µM | T47D 26.1 µM | NCI-H460 35.2 µM | KM12 > 100 µM | SF-268 67.3 µM | DU-145 > 100 µM | U-251 > 100 µM | SW-620 > 100 µM | MDA-N > 100 µM | LOX IMVI > 100 µM | NCI-H23 > 100 µM | MDA-MB-435 > 100 µM

CCN(CC)c1ccc2c(c1)OC(=O)C(c1nnc(-c3ccc([N+](=O)[O-])cc3)o1)C2 (stereo unspecified)
inactive: HT-29 > 100 µM | EKVX 10.2 µM | SNB-75 > 100 µM | IGROV-1 > 100 µM | HCC 2998 > 100 µM | SK-MEL-28 > 100 µM | 786-0 > 100 µM | SF-295 > 100 µM | PC-3 > 100 µM | NCI-H460 > 100 µM | KM12 > 100 µM | SF-268 90.4 µM | DU-145 > 100 µM | U-251 > 100 µM | SW-620 > 100 µM | MDA-N > 100 µM | LOX IMVI > 100 µM | NCI-H23 > 100 µM | MDA-MB-435 > 100 µM

CN(CO)c1nc(N(C)CO)nc(N(C)CO)n1 [TRIMELAMOL]
inactive: HT-29 23 µM | EKVX 19.7 µM | SNB-75 18.5 µM | IGROV-1 23.7 µM | SK-MEL-28 13.6 µM | 786-0 24.2 µM | SF-295 26.8 µM | PC-3 21.8 µM | T47D 32.1 µM | KM12 15.1 µM | DU-145 25.7 µM | U-251 19.5 µM | SW-620 3.51 µM | MDA-N 20.6 µM | LOX IMVI 9.86 µM | NCI-H23 19.3 µM | MDA-MB-435 20.1 µM
